Ki data for 29 molecules are collected here from US8680275B2, “Fused heterocyclic compounds as orexin receptor modulators” (Janssen Pharmaceutica NV, priority 2009, dated 2014).

For test [1], the target named is human orexin-2 receptor (Homo sapiens (Human), UniProt O43614). As to the kind of experiment: Human orexin 2 receptor radioligand binding ([3H]-EMPA competition). The note with it: HEK293 cells stably expressing human orexin-2 receptor; [3H]-EMPA 5 nM final; read-out: OR-2 Ki. The method in brief: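 Competition binding on HEK293 cells stably expressing human orexin-2 receptor, using 5 nM final [3H]-EMPA in PBS, compounds 0.1 nM to 10 μM (DMSO ≤0.1%). 60 min at room temperature, then filtration and scintillation counting; nonspecific binding defined with 10 μM of a reference antagonist.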
Chain of human orexin-2 receptor (O43614 whole entry): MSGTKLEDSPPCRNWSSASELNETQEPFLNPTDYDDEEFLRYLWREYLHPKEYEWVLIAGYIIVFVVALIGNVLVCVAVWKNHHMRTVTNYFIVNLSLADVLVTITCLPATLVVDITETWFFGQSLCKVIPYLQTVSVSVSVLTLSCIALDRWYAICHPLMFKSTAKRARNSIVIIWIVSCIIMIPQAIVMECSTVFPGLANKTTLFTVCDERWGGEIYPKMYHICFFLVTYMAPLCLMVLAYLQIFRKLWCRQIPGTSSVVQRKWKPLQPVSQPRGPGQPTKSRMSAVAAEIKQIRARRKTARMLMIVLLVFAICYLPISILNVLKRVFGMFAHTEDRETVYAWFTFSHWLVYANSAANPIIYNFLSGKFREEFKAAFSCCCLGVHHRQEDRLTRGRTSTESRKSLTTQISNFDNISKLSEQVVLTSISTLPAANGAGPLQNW

Test [2] concerns the target human orexin 1 receptor (Homo sapiens (Human), UniProt O43613). The test can be described thus: Human orexin 1 receptor radioligand binding ([3H]-SB674042 competition). The conditions noted are these: CHO cells stably expressing human orexin 1 receptor; [3H]-SB674042 4 nM final; read-out: OR-1 Ki. The method in brief:
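CHO cells stably expressing human OX1R incubated 60 min at room temperature with [3H]-SB674042 and compounds (7 concentrations, 0.1 nM–10 μM; DMSO ≤0.1%) in PBS. Nonspecific binding defined with 10 μM of a reference urea antagonist; bound radioactivity measured by filtration and scintillation counting.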

Chain of human orexin 1 receptor (O43613 whole entry): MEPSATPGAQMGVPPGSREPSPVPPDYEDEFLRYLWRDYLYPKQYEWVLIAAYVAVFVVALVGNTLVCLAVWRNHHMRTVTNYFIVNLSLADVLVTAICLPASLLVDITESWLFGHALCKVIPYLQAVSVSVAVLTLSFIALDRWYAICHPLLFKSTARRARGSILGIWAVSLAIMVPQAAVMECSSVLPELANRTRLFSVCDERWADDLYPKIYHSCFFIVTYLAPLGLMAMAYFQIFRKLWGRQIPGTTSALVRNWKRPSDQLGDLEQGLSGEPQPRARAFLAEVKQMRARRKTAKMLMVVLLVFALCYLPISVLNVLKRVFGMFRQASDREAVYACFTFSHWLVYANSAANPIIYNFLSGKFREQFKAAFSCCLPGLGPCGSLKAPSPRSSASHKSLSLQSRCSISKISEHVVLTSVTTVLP

For the molecule `CN(C)c1nc(N2C[C@@H]3CCN(C(=O)c4c(F)cccc4-n4nccn4)C[C@@H]32)cc(C(F)(F)F)n1` [Example 37, (1R,6S)-[8-(2-Dimethylamino-6-trifluoromethyl-pyrimidin-4-yl)-3,8-diaza-bicyclo[4.2.0]oct-3-yl]-(2-fluoro-6-[1,2,3]triazol-2-yl-phenyl)-methanone], the Ki (commonly the equilibrium dissociation constant of an inhibitor or competing ligand from its target) in test [1] was found to be 10 nM; in test [2], 19 nM.

Take `CN(C)c1nc(N2C[C@@H]3CCN(C(=O)c4ccc(F)cc4-n4nccn4)C[C@@H]32)cc(C(F)(F)F)n1` [Example 38, (1R,6S)-[8-(2-Dimethylamino-6-trifluoromethyl-pyrimidin-4-yl)-3,8-diaza-bicyclo[4.2.0]oct-3-yl]-(4-fluoro-2-[1,2,3]triazol-2-yl-phenyl)-methanone]: the Ki in test [1] was 16 nM; in test [2], 77 nM.

Take `O=C(c1ccccc1-n1nccn1)N1CC[C@H]2CN(c3cnc4ccccc4n3)[C@H]2C1` [Example 39, (1R,6S)-(8-Quinoxalin-2-yl-3,8-diaza-bicyclo[4.2.0]oct-3-yl)-(2-[1,2,3]triazol-2-yl-phenyl)methanone]: the inhibition constant (Ki) in test [1] came to 20 nM; in test [2], 32 nM.

Regarding `Cc1cc(N2C[C@@H]3CCN(C(=O)c4cc(F)ccc4-n4nccn4)C[C@@H]32)nc(N(C)C)n1` [Example 40, (1R,6S)-[8-(2-Dimethylamino-6-methyl-pyrimidin-4-yl)-3,8-diaza-bicyclo[4.2.0]oct-3-yl]-(5-fluoro-2-[1,2,3]triazol-2-yl-phenyl)-methanone], the Ki in test [1] worked out at 91 nM; in test [2] it was 1210 nM.

`Cc1cc(N2C[C@@H]3CCN(C(=O)c4ccccc4-n4nccn4)C[C@@H]32)nc(N(C)C)n1` [Example 43, (1R,6S)-[8-(2-Dimethylamino-6-methyl-pyrimidin-4-yl)-3,8-diaza-bicyclo[4.2.0]oct-3-yl]-(2-[1,2,3]triazol-2-yl-phenyl)-methanone]: the values for the Ki in test [1] and in test [2] were 90 nM and 475 nM, respectively.

In the case of `Cc1cc(N2C[C@@H]3CCN(C(=O)c4c(F)cccc4-n4nccn4)C[C@@H]32)nc(N(C)C)n1` [Example 44, (1R,6S)-[8-(2-Dimethylamino-6-methyl-pyrimidin-4-yl)-3,8-diaza-bicyclo[4.2.0]oct-3-yl]-(2-fluoro-6-[1,2,3]triazol-2-yl-phenyl)-methanone], the Ki in test [1] is 73 nM; in test [2] it was 480 nM.

On to `CN(C)c1nc(N2C[C@@H]3CCN(C(=O)c4cc(F)ccc4-n4nccn4)C[C@@H]32)cc(C(F)(F)F)n1` [Example 46, (1R,6S)-[8-(2-Dimethylamino-6-trifluoromethyl-pyrimidin-4-yl)-3,8-diaza-bicyclo[4.2.0]oct-3-yl]-(5-fluoro-2-[1,2,3]triazol-2-yl-phenyl)-methanone], for which the Ki in test [1] was determined as 15 nM; in test [2], 47 nM.

On to `O=C(c1ccccc1-c1ccccc1)N1CC2CN(c3nccc(-c4ccccc4)n3)C2C1` (stereo not shown) [Example 47, 3-(Biphenyl-2-ylcarbonyl)-6-(4-phenylpyrimidin-2-yl)-3,6-diazabicyclo[3.2.0]heptane], for which the Ki worked out at 132 nM in test [1] and 206 nM in test [2].

Take `O=C(c1ccccc1-c1ccccc1)N1CC2CN(c3cnc4ccccc4n3)C2C1` (stereo not shown) [Example 48, 2-[3-(Biphenyl-2-ylcarbonyl)-3,6-diazabicyclo[3.2.0]hept-6-yl]quinoxaline]: the Ki in test [1] amounted to 179 nM; in test [2] it was 258 nM.

Consider `O=C(c1ccccc1-c1cccs1)N1CC2CN(c3cnc4ccccc4n3)C2C1` (stereo not shown) [Example 49, 2-{3-[(2-Thiophen-2-ylphenyl)carbonyl]-3,6-diazabicyclo[3.2.0]hept-6-yl}quinoxaline], for which the results for the Ki in test [1] and in test [2] were 77 nM and 114 nM, respectively.

Regarding `O=C(c1ccccc1-c1cccs1)N1CC2CN(c3nccc(-c4ccccc4)n3)C2C1` (stereo not shown) [Example 50, 6-(4-Phenylpyrimidin-2-yl)-3-[(2-thiophen-2-ylphenyl)carbonyl]-3,6-diazabicyclo[3.2.0]heptane], the Ki in test [1] came to 94 nM; in test [2] it was 39 nM.

For the molecule `Cc1nc(C(=O)N2CC3CN(c4cnc5ccccc5n4)C3C2)c(-c2ccccc2F)s1` (stereo not shown) [Example 51, 2-(3-{[5-(2-Fluorophenyl)-2-methyl-1,3-thiazol-4-yl]carbonyl}-3,6-diazabicyclo[3.2.0]hept-6-yl)quinoxaline], the Ki amounted to 501 nM in test [1] and 432 nM in test [2].

Turning to `Cc1nc(C(=O)N2CC3CN(c4nccc(-c5ccccc5)n4)C3C2)c(-c2ccccc2F)s1` (stereo not shown) [Example 52, 3-{[5-(2-Fluorophenyl)-2-methyl-1,3-thiazol-4-yl]carbonyl}-6-(4-phenylpyrimidin-2-yl)-3,6-diazabicyclo[3.2.0]heptane], the Ki in test [1] stood at 137 nM; in test [2] it was 104 nM.

For the molecule `COc1ccccc1C(=O)N1CC2CN(c3nccc(-c4ccccc4)n3)C2C1` (stereo not shown) [Example 53, 3-[(2-Methoxyphenyl)carbonyl]-6-(4-phenylpyrimidin-2-yl)-3,6-diazabicyclo[3.2.0]heptane], the values for the Ki in test [1] and in test [2] were 1810 nM and 3700 nM, respectively.

As for `COc1ccccc1C(=O)N1CC2CN(c3cnc4ccccc4n3)C2C1` (stereo not shown) [Example 54, 2-{3-[(2-Methoxyphenyl)carbonyl]-3,6-diazabicyclo[3.2.0]hept-6-yl}quinoxaline], the Ki in test [1] was 2420 nM; in test [2], 3450 nM.

For `Cc1cc(C)nc(N2CC3CN(C(=O)c4ccccc4-c4cccs4)CC32)n1` (stereo not shown) [Example 57, 6-(4,6-Dimethylpyrimidin-2-yl)-3-[(2-thiophen-2-ylphenyl)carbonyl]-3,6-diazabicyclo[3.2.0]heptane], the Ki was found to be 29 nM in test [1] and 3570 nM in test [2].

For `Cc1cc(C)nc(N2CC3CN(C(=O)c4ccccc4Br)CC32)n1` (stereo not shown) [Example 58, 3-[(2-Bromophenyl)carbonyl]-6-(4,6-dimethylpyrimidin-2-yl)-3,6-diazabicyclo[3.2.0]heptane], the inhibition constant (Ki) is 1050 nM in test [1] and 9650 nM in test [2].

As for `Cc1ccnc(N2CC3CN(C(=O)c4ccccc4Br)CC32)n1` (stereo not shown) [Example 59, (2-Bromo-phenyl)-[6-(4-methyl-pyrimidin-2-yl)-3,6-diaza-bicyclo[3.2.0]hept-3-yl]-methanone], the Ki worked out at 9320 nM in test [1] and 10000 nM in test [2].

As to `Cc1ccnc(N2CC3CN(C(=O)c4ccccc4-c4cccs4)CC32)n1` (stereo not shown) [Example 60, 6-(4-Methylpyrimidin-2-yl)-3-[(2-thiophen-2-ylphenyl)carbonyl]-3,6-diazabicyclo[3.2.0]heptane], the Ki came to 188 nM in test [1] and 10000 nM in test [2].

Take `Cc1ccnc(N2CC3CN(C(=O)c4ccccc4-c4ccccc4)CC32)n1` (stereo not shown) [Example 61, 3-(Biphenyl-2-ylcarbonyl)-6-(4-methylpyrimidin-2-yl)-3,6-diazabicyclo[3.2.0]heptane]: the Ki in test [1] came out at 980 nM; in test [2], 10000 nM.

As for `COc1ccnc(N2CC3CN(C(=O)c4ccccc4-c4cccs4)CC32)n1` (stereo not shown) [Example 62, 6-(4-Methoxypyrimidin-2-yl)-3-[(2-thiophen-2-ylphenyl)carbonyl]-3,6-diazabicyclo[3.2.0]heptane], the Ki in test [1] turned out to be 123 nM; in test [2], 5000 nM.

As to `COc1ccnc(N2CC3CN(C(=O)c4ccccc4-c4ccccc4)CC32)n1` (stereo not shown) [Example 63, 3-(Biphenyl-2-ylcarbonyl)-6-(4-methoxypyrimidin-2-yl)-3,6-diazabicyclo[3.2.0]heptane], the results for the Ki in test [1] and in test [2] were 392 nM and 10000 nM, respectively.

For `CCOc1ccc2ccccc2c1C(=O)N1CC2CN(c3nc(OC)cc(OC)n3)C2C1` (stereo not shown) [Example 64, 6-(4,6-Dimethoxypyrimidin-2-yl)-3-[(2-ethoxynaphthalen-1-yl)carbonyl]-3,6-diazabicyclo[3.2.0]heptane], the inhibition constant (Ki) in test [1] came out at 109 nM; in test [2], 808 nM.

`CCOc1ccc2ccccc2c1C(=O)N1CC2CN(c3nc(C)cc(C)n3)C2C1` (stereo not shown) [Example 65, 6-(4,6-Dimethylpyrimidin-2-yl)-3-[(2-ethoxynaphthalen-1-yl)carbonyl]-3,6-diazabicyclo[3.2.0]heptane]: the values for the Ki in test [1] and in test [2] were 42 nM and 1070 nM, respectively.

`Cc1cc(C)nc(N2CC3CN(C(=O)c4ccccc4-n4nccn4)CC32)n1` (stereo not shown) [Example 66, 6-(4,6-Dimethylpyrimidin-2-yl)-3-{[2-(2H-1,2,3-triazol-2-yl)phenyl]carbonyl}-3,6-diazabicyclo[3.2.0]heptane]: the results for the Ki in test [1] and in test [2] were 163 nM and 9650 nM, respectively.

`O=C(c1ccccc1-n1nccn1)N1CC2CN(c3nccc(-c4ccccc4)n3)C2C1` (stereo not shown) [Example 67, 6-(4-Phenylpyrimidin-2-yl)-3-{[2-(2H-1,2,3-triazol-2-yl)phenyl]carbonyl}-3,6-diazabicyclo[3.2.0]heptane]: the Ki was 156 nM in test [1] and 225 nM in test [2].

In the case of `Cc1ccc(-n2nccn2)c(C(=O)N2CC3CN(c4nc(C)cc(C)n4)C3C2)c1` (stereo not shown) [Example 68, 6-(4,6-Dimethylpyrimidin-2-yl)-3-{[5-methyl-2-(2H-1,2,3-triazol-2-yl)phenyl]carbonyl}-3,6-diazabicyclo[3.2.0]heptane], the Ki is 192 nM in test [1] and 5000 nM in test [2].

Take `Cc1ccc(-n2nccn2)c(C(=O)N2CC3CN(c4nccc(-c5ccccc5)n4)C3C2)c1` (stereo not shown) [Example 69]: the inhibition constant Ki in test [1] came to 61 nM; in test [2] it was 128 nM.

For the molecule `O=C(c1cc(F)ccc1-n1nccn1)N1CC[C@H]2CN(c3cnnc(Cl)c3)[C@H]2C1` [Example 87, (1R,6S)-8-(6-Chloropyridazin-4-yl)-3-{[5-fluoro-2-(2H-1,2,3-triazol-2-yl)phenyl]carbonyl}-3,8-diazabicyclo[4.2.0]octane], the figures for the Ki in test [1] and in test [2] were 1400 nM and at least 10000 nM, respectively.
